Where a SMILES comes first, the peptide text is derived from it.
Assays:
[1] = PK test for small-intestinal administration of rInsulin (ELISA); format: in vivo; settings: SD rats; small-intestinal administration at 200 μg/kg without composition
Text: (§1) Laboratory Animals: Adult Male SD Rats.
(§2) The plasma was collected and subjected to quick freezing.

in vivo [2] = assay: in vivo
Text: as §1, §2

[3] = PK test for small-intestinal administration of Teriparatide (ELISA); format: in vivo; settings: SD rats
Text: as §1, §2

[4] = PK test for small-intestinal administration of Vasopressin (ELISA); format: in vivo; settings: SD rats
Text: as §1, §2

in vivo [5] = assay: in vivo; design: species or system SD rats; settings: male, SD, rat
Text: The composition of the present invention: polyethylene glycol 4000, carbomer, chitosan oligosaccharide, and citric acid, in a weight ratio of 19:6:6:60.
as §1, §2

[6] = PK test for small-intestinal administration of ACTH (ELISA); format: in vivo; settings: SD rats
Text: as §1, §2

[7] = PK test for small-intestinal administration of Octreotide (ELISA); format: in vivo; settings: SD rats
Text: as §1, §2

[8] = PK test for small-intestinal administration of Mecasermin (ELISA); format: in vivo; settings: SD rats
Text: as §1, §2

[9] = PK test for small-intestinal administration of Gramicidin (ELISA); format: in vivo; settings: SD rats
Text: as §1, §2

[10] = PK test for small-intestinal administration of Bivalirudin (ELISA); format: in vivo; settings: SD rats
Text: as §1, §2

[11] = PK test for small-intestinal administration of Oxytocin (ELISA); format: in vivo; settings: SD rats
Text: as §1, §2

[12] = PK test for small-intestinal administration of Thymosin alpha-1 (ELISA); format: in vivo; settings: SD rats
Text: as §1, §2

[13] = PK test for small-intestinal administration of Teduglutide (ELISA); format: in vivo; settings: SD rats
Text: The composition of the present invention: Tween 80, Carbomer 910, carboxymethyl Chitosan, and Sodium Tartrate, in a weight ratio of 25:8:8:80.
as §1, §2

[14] = PK test for small-intestinal administration of Growth Hormone (ELISA); format: in vivo; settings: SD rats
Text: as §1, §2

[15] = small-intestinal administration at 200 μg/kg without composition
[16] = rat, in vivo, ei 200 μg/kg with composition sodium lauryl sulfate, carbomer, chitosan, sodium citrate 20:6.5:6.5:65 (1:5), vs iv 1 μg/kg

rInsulin: Recombinant Insulin (rInsulin)
blood concentration [1]: lower than the detection limit of ELISA

CC(C)C[C@H](NC(=O)CNC(=O)[C@H](Cc1ccc(O)cc1)NC(=O)[C@H](CO)NC(=O)[C@H](Cc1c[nH]c2ccccc12)NC(=O)[C@H](Cc1cnc[nH]1)NC(=O)[C@@H]1CCC(=O)N1)C(=O)N[C@@H](CCCNC(=N)N)C(=O)N1CCC[C@H]1C(=O)NCC(N)=O [Gonadorelin]
blood concentration (in vivo [2]; SD rats, small-intestinal administration at 200 μg/kg without composition): lower than the detection limit of ELISA | bioavailability (in vivo [2]; male, SD, rat, plasma, 200 μg/kg): 1.58%

CC[C@H](C)[C@H](NC(=O)[C@H](CCC(=O)O)NC(=O)[C@H](CO)NC(=O)[C@@H](NC(=O)[C@@H](N)CO)C(C)C)C(=O)N[C@@H](CCC(N)=O)C(=O)N[C@@H](CC(C)C)C(=O)N[C@@H](CCSC)C(=O)N[C@@H](Cc1cnc[nH]1)C(=O)N[C@@H](CC(N)=O)C(=O)N[C@@H](CC(C)C)C(=O)NCC(=O)N[C@@H](CCCCN)C(=O)N[C@@H](Cc1cnc[nH]1)C(=O)N[C@@H](CC(C)C)C(=O)N[C@@H](CC(N)=O)C(=O)N[C@@H](CO)C(=O)N[C@@H](CCSC)C(=O)N[C@@H](CCC(=O)O)C(=O)N[C@@H](CCCN=C(N)N)C(=O)N[C@H](C(=O)N[C@@H](CCC(=O)O)C(=O)N[C@@H](Cc1c[nH]c2ccccc12)C(=O)N[C@@H](CC(C)C)C(=O)N[C@@H](CCCN=C(N)N)C(=O)N[C@@H](CCCCN)C(=O)N[C@@H](CCCCN)C(=O)N[C@@H](CC(C)C)C(=O)N[C@@H](CCC(N)=O)C(=O)N[C@@H](CC(=O)O)C(=O)N[C@H](C(=O)N[C@@H](Cc1cnc[nH]1)C(=O)N[C@@H](CC(N)=O)C(=O)N[C@@H](Cc1ccccc1)C(=O)O)C(C)C)C(C)C [Teriparatide]
blood concentration [3, 15]: lower than the detection limit of ELISA | bioavailability ([3]; male, rat, plasma, ei 200 μg/kg with composition sodium lauryl sulfate, carbomer, chitosan, sodium citrate 20:6.5:6.5:65 (1:5), vs iv 1 μg/kg): 2.08%

NC(=O)CC[C@@H]1NC(=O)[C@H](Cc2ccccc2)NC(=O)[C@H](Cc2ccc(O)cc2)NC(=O)[C@@H](N)CSSC[C@@H](C(=O)N2CCC[C@H]2C(=O)N[C@@H](CCCN=C(N)N)C(=O)NCC(N)=O)NC(=O)[C@H](CC(N)=O)NC1=O [Vasopressin]
blood concentration [4, 15]: lower than the detection limit of ELISA | bioavailability ([4]; male, rat, plasma, ei 200 μg/kg with composition sodium lauryl sulfate, carbomer, chitosan, sodium citrate 23:8:7.5:80 (1:5), vs iv 1 μg/kg): 1.81%

CCNC(=O)[C@@H]1CCCN1C(=O)[C@H](CCCNC(=N)N)NC(=O)[C@H](CC(C)C)NC(=O)[C@@H](CC(C)C)NC(=O)[C@H](Cc1ccc(O)cc1)NC(=O)[C@H](CO)NC(=O)[C@H](Cc1c[nH]c2ccccc12)NC(=O)[C@H](Cc1c[nH]cn1)NC(=O)[C@@H]1CCC(=O)N1 [Leuprolide]
bioavailability (in vivo [5]): 1.32%

CSCC[C@H](NC(=O)[C@H](CO)NC(=O)[C@H](Cc1ccc(O)cc1)NC(=O)[C@@H](N)CO)C(=O)N[C@@H](CCC(=O)O)C(=O)N[C@@H](Cc1cnc[nH]1)C(=O)N[C@@H](Cc1ccccc1)C(=O)N[C@@H](CCCNC(=N)N)C(=O)N[C@@H](Cc1c[nH]c2ccccc12)C(=O)NCC(=O)N[C@@H](CCCCN)C(=O)N1CCC[C@H]1C(=O)N[C@H](C(=O)NCC(=O)N[C@@H](CCCCN)C(=O)N[C@@H](CCCCN)C(=O)N[C@@H](CCCNC(=N)N)C(=O)N[C@@H](CCCNC(=N)N)C(=O)N1CCC[C@H]1C(=O)N[C@H](C(=O)N[C@@H](CCCCN)C(=O)N[C@H](C(=O)N[C@@H](Cc1ccc(O)cc1)C(=O)N1CCC[C@H]1C(=O)N[C@@H](CC(N)=O)C(=O)NCC(=O)N[C@@H](C)C(=O)N[C@@H](CCC(=O)O)C(=O)N[C@@H](CC(=O)O)C(=O)N[C@@H](CCC(=O)O)C(=O)N[C@@H](CO)C(=O)N[C@@H](C)C(=O)N[C@@H](CCC(=O)O)C(=O)N[C@@H](C)C(=O)N[C@@H](Cc1ccccc1)C(=O)N1CCC[C@H]1C(=O)N[C@@H](CC(C)C)C(=O)N[C@@H](CCC(=O)O)C(=O)N[C@@H](Cc1ccccc1)C(=O)O)C(C)C)C(C)C)C(C)C [ACTH] (H-SYSMEHFRWGKPVGKKRRPVKVYPNGAEDESAEAFPLEF-OH)
blood concentration [6, 15]: lower than the detection limit of ELISA | bioavailability [6, 16]: 1.86%

C[C@@H](O)[C@@H]1NC(=O)[C@H](CCCCN)NC(=O)[C@@H](Cc2c[nH]c3ccccc23)NC(=O)[C@H](Cc2ccccc2)NC(=O)[C@@H](NC(=O)[C@H](N)Cc2ccccc2)CSSC[C@@H](C(=O)N[C@H](CO)[C@@H](C)O)NC1=O [Octreotide]
blood concentration [7, 15]: lower than the detection limit of ELISA | bioavailability ([7]; male, rat, plasma, ei 200 μg/kg with composition sodium lauryl sulfate, carbomer, chitosan, sodium citrate 21:7:6:69 (1:5), vs iv 1 μg/kg): 1.71%

Mecasermin
bioavailability of small-intestinal administration ([8]; ei 200 μg/kg with composition sodium lauryl sulfate, carbomer, chitosan, sodium citrate 21:6:7:65 (1:5), vs iv 1 μg/kg): 1.38% | blood concentration [8, 15]: lower than the detection limit of ELISA

Gramicidin D
bioavailability of small-intestinal administration ([9]; ei 200 μg/kg with composition sodium lauryl sulfate, carbomer, chitosan, sodium citrate 19:6:6:60 (1:5), vs iv 1 μg/kg): 1.18% | blood concentration [9, 15]: lower than the detection limit of ELISA

CC[C@H](C)[C@H](NC(=O)[C@H](CCC(=O)O)NC(=O)[C@H](CCC(=O)O)NC(=O)[C@H](Cc1ccccc1)NC(=O)[C@H](CC(=O)O)NC(=O)CNC(=O)[C@H](CC(N)=O)NC(=O)CNC(=O)CNC(=O)CNC(=O)CNC(=O)[C@@H]1CCCN1C(=O)[C@H](CCCNC(=N)N)NC(=O)[C@@H]1CCCN1C(=O)[C@H](N)Cc1ccccc1)C(=O)N1CCC[C@H]1C(=O)N[C@@H](CCC(=O)O)C(=O)N[C@@H](CCC(=O)O)C(=O)N[C@@H](Cc1ccc(O)cc1)C(=O)N[C@@H](CC(C)C)C(=O)O [Bivalirudin]
blood concentration [10, 15]: lower than the detection limit of ELISA | bioavailability ([10]; rat, in vivo, ei 200 μg/kg with composition sodium lauryl sulfate, carbomer, chitosan, citric acid 19:6.5:7:67 (1:5), vs iv 1 μg/kg): 1.63%

CC[C@H](C)[C@@H]1NC(=O)[C@H](Cc2ccc(O)cc2)NC(=O)[C@@H](N)CSSC[C@@H](C(=O)N2CCC[C@H]2C(=O)N[C@@H](CC(C)C)C(=O)NCC(N)=O)NC(=O)[C@H](CC(N)=O)NC(=O)[C@H](CCC(N)=O)NC1=O [Oxytocin]
blood concentration [11, 15]: lower than the detection limit of ELISA | bioavailability ([11]; male, rat, plasma, ei 200 μg/kg with composition sodium lauryl sulfate, carbomer 934, water-soluble chitosan, disodium edetate 24:7.5:7:75 (1:5), vs iv 1 μg/kg): 2.58%

CC[C@H](C)[C@H](NC(=O)[C@H](CCC(=O)O)NC(=O)[C@H](CO)NC(=O)[C@H](CO)NC(=O)[C@@H](NC(=O)[C@H](CC(=O)O)NC(=O)[C@@H](NC(=O)[C@H](C)NC(=O)[C@H](C)NC(=O)[C@H](CC(=O)O)NC(=O)[C@H](CO)NC(C)=O)C(C)C)[C@@H](C)O)C(=O)N[C@H](C(=O)N[C@H](C(=O)N[C@@H](CCCCN)C(=O)N[C@@H](CC(=O)O)C(=O)N[C@@H](CC(C)C)C(=O)N[C@@H](CCCCN)C(=O)N[C@@H](CCC(=O)O)C(=O)N[C@@H](CCCCN)C(=O)N[C@@H](CCCCN)C(=O)N[C@@H](CCC(=O)O)C(=O)N[C@H](C(=O)N[C@H](C(=O)N[C@@H](CCC(=O)O)C(=O)N[C@@H](CCC(=O)O)C(=O)N[C@@H](C)C(=O)N[C@@H](CCC(=O)O)C(=O)N[C@@H](CC(N)=O)C(=O)O)C(C)C)C(C)C)[C@@H](C)O)[C@@H](C)O [Thymosin alpha-1] (Ac-SDAAVDTSSEITTKDLKEKKEVVEEAEN-OH)
blood concentration [12, 15]: lower than the detection limit of ELISA | bioavailability [12, 16]: 0.65%

CC[C@H](C)[C@H](NC(=O)[C@H](Cc1ccccc1)NC(=O)[C@H](CC(=O)O)NC(=O)[C@H](CCCNC(=N)N)NC(=O)[C@H](C)NC(=O)[C@H](C)NC(=O)[C@H](CC(C)C)NC(=O)[C@H](CC(N)=O)NC(=O)[C@H](CC(=O)O)NC(=O)[C@H](CC(C)C)NC(=O)[C@@H](NC(=O)[C@@H](NC(=O)[C@H](CC(N)=O)NC(=O)[C@H](CCSC)NC(=O)[C@H](CCC(=O)O)NC(=O)[C@H](CC(=O)O)NC(=O)[C@H](CO)NC(=O)[C@H](Cc1ccccc1)NC(=O)[C@H](CO)NC(=O)CNC(=O)[C@H](CC(=O)O)NC(=O)CNC(=O)[C@@H](N)Cc1c[nH]cn1)[C@@H](C)O)[C@@H](C)CC)C(=O)N[C@@H](CC(N)=O)C(=O)N[C@@H](Cc1c[nH]c2ccccc12)C(=O)N[C@@H](CC(C)C)C(=O)N[C@H](C(=O)N[C@@H](CCC(N)=O)C(=O)N[C@H](C(=O)N[C@@H](CCCCN)C(=O)N[C@H](C(=O)N[C@H](C(=O)N[C@@H](CC(=O)O)C(=O)O)[C@@H](C)O)[C@@H](C)CC)[C@@H](C)O)[C@@H](C)CC [Teduglutide]
blood concentration [13, 15]: lower than the detection limit of ELISA | bioavailability ([13]; male, rat, plasma, ei 200 μg/kg with composition Tween 80, Carbomer 910, carboxymethyl Chitosan, Sodium Tartrate 25:8:8:80 (1:5), vs iv 1 μg/kg): 2.13%

Growth Hormone: Growth Hormone (rhGH)
bioavailability of small-intestinal administration ([14]; ei 200 μg/kg with composition sodium lauryl sulfate, carbomer, chitosan, sodium citrate 20:6.5:6.5:65 (1:5), vs iv 1 μg/kg): 0.32% | blood concentration [14, 15]: lower than the detection limit of ELISA
